Measurements published in US8728472B2, “Antibodies that bind selectively to P25 and uses therefor” (The Board of Regents of the University of Texas System, priority 2009, dated 2014).
Residues, ends and D or L forms follow the SMILES beside them. *: point of attachment. Cbz = O=C(OCc1ccccc1)*

Legend:
D1 dopamine receptor = biological target: T1, D1 dopamine receptor (Mus musculus, UniProt Q61616); test: D1 agonist-induced PKA-dependent phosphorylation in striatal slices; format: cell-based
T1 construct: from tissue; host or cells: acute mouse striatal slices
Procedure: Homogenates were prepared from rapidly dissected tissue or striatal slices using standard methodology (Nishi et al., 1997).

calpain = settings: preincubation 20 μM, 1 h, striatal slices
Procedure: Acutely prepared coronal slices were prepared as described (Nishi et al., 1997). For OGD, slices were switched from Kreb's buffer bubbled in 95% O2/5% CO2 to 100% N2 and glucose was replaced by 10 mM sucrose for indicated periods (Sahin et al., 2008; Sahin et al., 2007). […] Homogenates were prepared from rapidly dissected tissue or striatal slices using standard methodology (Nishi et al., 1997). […] For immunostaining of cultured cells, rat primary striatal neuron cultures were prepared, subjected to control or OGD conditions, fixed and stained as described (Meyer et al., 2008).

[1] = tested on: coronal mouse brain slices; test: TTC viability staining of coronal brain slices subjected to OGD; format: cell-based; settings: for neuroprotective effect against OGD-induced neuronal death / viability (TTC staining) after 60 min OGD: incubation 1 h prior to and during OGD; for viability (TTC staining) after 60 min OGD: 60 min without oxygen and glucose
Procedure: (§1) Slices were treated with SKF81297 (1 μM, 10 min), calpain inhibitor 3, calpeptin (20 μM, 1 h), Ca^2+-free Krebs (1 h), and Indo A or B (1 h) at indicated concentrations. See Methods.
(§2) Abs to p35, DARPP-32 (Nishi et al., 1997), GFAP, and p25 were used to stain rat coronal cryosections (20 μm) from control and stroked hemispheres. […] See Methods for further details.
Having established this pharmacological approach, the effect of OGD on neuronal viability was next quantitatively assessed by 2, 3, 5-triphenyltetrazolium chloride (TTC) staining (Bederson et al., 1986) (FIGS. 8E and 8F). TTC staining was readily observed in coronal mouse brain slices oxygenated in Kreb's buffer for 1 h. OGD induced time-dependent neuronal death with TTC staining reduced to 60.8±2.1 and 0.6±7.9% of control levels by exposure to ischemic conditions for 30 and 60 min, respectively.

Cdk5 = biological target: T2, Cdk5 (Mus musculus, UniProt P49615); test: Cdk5 inhibition in striatal slices by blotting phospho-Thr75 DARPP-32; format: cell-based
T2 construct: from tissue; host or cells: acute striatal slices
Procedure: as §1, §2
To assess the deleterious effects of aberrantly active Cdk5/p25, the selective and potent Cdk5 inhibitor, indolinone A (Gillardon et al., 2005) (Indo A) was employed. First, its ability to inhibit Cdk5 in striatal slices was assessed by treating striatal slices with various concentrations (1-10 μM) of Indo A and blotting the lysates for the defined Cdk5 site, phospho-Thr75 DARPP-32 (Bibb et al., 1999). […] In contrast the congener Indolinone B, which is limited in specificity to Cdk4 (Weishaupt et al., 2003), had no effect on Cdk5-dependent phosphorylation of DARPP-32.

[2] = tested on: striatal projecting spiny neurons; test: Electrophysiological recordings (EPSP, membrane potential, field potential) in corticostriatal slices under OGD; format: cell-based; settings: pre-treatment
Excerpt: Electrophysiological recordings of FPs and single unit activity were taken from slices under physiological and OGD conditions using described methodology (Calabresi et al., 1998; Picconi et al., 2003; Costa et al., 2006).
To better understand the physiological effects of shorter periods of ischemia, a neurophysiological approach was utilized. Sharp microelectrode intracellular recordings were obtained from striatal projecting spiny neurons identified according to their electrophysiological characteristics (Calabresi et al., 1998). In these neurons, a very brief period (2-3 min) of OGD induced loss of membrane potential (FIGS. 10A-B) and a transient suppression of the excitatory post-synaptic potential (EPSP) followed by a long-term increase in the EPSP amplitude in comparison to the pre-ischemic period (139.7±10.3%, n=5, p<0.05, FIG. 10C). This long-term increase of the glutamatergic transmission at corticostriatal synapses, called post-ischemic LTP (i-LTP), represents a pathological form of synaptic plasticity occurring after brain ischemia (Calabresi et al., 2003; Calabresi et al., 1998; Calabresi et al., 2002). […] Extracellular field potential (FP) recordings were also obtained from corticostriatal slices. In control conditions, 10 min of OGD caused an irreversible loss of FP (FIGS. 10E-F).

T1 sequence (Q61616 whole entry): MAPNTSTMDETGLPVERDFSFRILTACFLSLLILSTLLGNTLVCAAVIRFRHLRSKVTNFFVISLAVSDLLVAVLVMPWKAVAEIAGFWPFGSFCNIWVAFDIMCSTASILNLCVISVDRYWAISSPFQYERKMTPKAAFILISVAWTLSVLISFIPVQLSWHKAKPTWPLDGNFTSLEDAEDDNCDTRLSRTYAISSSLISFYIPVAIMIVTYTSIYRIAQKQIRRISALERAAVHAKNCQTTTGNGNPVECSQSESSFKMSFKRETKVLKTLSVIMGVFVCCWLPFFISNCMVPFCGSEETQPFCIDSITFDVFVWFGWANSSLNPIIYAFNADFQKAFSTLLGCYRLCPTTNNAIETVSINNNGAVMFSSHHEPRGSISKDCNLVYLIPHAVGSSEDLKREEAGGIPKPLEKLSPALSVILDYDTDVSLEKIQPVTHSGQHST
T2 sequence (P49615 whole entry): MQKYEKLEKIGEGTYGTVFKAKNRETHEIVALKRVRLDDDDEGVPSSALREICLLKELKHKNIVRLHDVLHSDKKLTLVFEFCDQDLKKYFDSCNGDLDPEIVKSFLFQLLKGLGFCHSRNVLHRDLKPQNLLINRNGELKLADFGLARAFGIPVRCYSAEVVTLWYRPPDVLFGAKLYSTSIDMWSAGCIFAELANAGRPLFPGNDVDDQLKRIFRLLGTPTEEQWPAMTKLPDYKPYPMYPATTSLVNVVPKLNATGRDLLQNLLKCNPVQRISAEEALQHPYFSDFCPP
T2 sequence (P61809 2-307 partner limits assumed): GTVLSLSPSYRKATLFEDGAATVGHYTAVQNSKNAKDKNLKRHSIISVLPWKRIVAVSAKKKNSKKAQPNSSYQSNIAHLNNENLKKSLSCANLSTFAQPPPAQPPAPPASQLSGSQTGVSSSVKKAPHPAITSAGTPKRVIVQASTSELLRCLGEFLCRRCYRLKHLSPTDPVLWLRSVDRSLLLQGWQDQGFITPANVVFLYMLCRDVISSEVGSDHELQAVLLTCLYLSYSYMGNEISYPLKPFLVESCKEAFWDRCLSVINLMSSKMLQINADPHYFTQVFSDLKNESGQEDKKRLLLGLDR

Compound | OGD-dependent p25 generation (calpain) | TTC staining intensity relative to 60 min OGD without inhibitor [1] [fold] | neuroprotective effect against OGD-induced neuronal death [1] | viability (TTC staining) after 60 min OGD [1] | other results
Oc1cc2c(c(Cl)c1O)CCNCC2c1ccccc1 (centres unmarked) [SKF81297] | – | – | – | – | increase in phospho-Ser845 GluR1 (D1 dopamine receptor; oxygenated slices, 1 μM, 5 min): 2.0±0.1 fold; increase in phospho-Thr34 DARPP-32 (D1 dopamine receptor; oxygenated slices, 1 μM, 5 min): 3.6±0.3 fold
CC(C)[C@H](NC(=O)OCc1ccccc1)C(=O)N[C@H](C=O)Cc1ccccc1 [calpain inhibitor 3] (Cbz-Val-Phe-aldehyde) | prevented p25 generation | – | – | – | –
CCCC[C@@H](C=O)NC(=O)[C@H](CC(C)C)NC(=O)OCc1ccccc1 [calpeptin] | prevented p25 generation | 111.3±6.0 | significantly blocked neuronal death | 69.6±6.6 % of control levels | –
Indolinone B [Indo B] | – | – | no such neuroprotective effect | – | effect on Cdk5-dependent phosphorylation of DARPP-32 (Cdk5): had no effect
indolinone A [Indo A] | – | 95.5±9.6 | significantly blocked neuronal death | 59.7±6.0 % of control levels | phospho-Thr75 DARPP-32, reduction to % of basal levels (Cdk5; 5 μM): 26±8 % of basal levels; IC50 (Cdk5; 1-10 μM, 1 h): 0.29 µM; increase in phospho-Ser845 in response to SKF81297 after 10 min of ischemia (D1 dopamine receptor; preincubation with Indo A 10 μM, 1 h, 10 min OGD/10 min reperfusion): 4.7±1.2 fold; induction of i-LTP at corticostriatal synapses ([2]; 3 min OGD, n=5): completely blocked the induction of i-LTP; loss of field potential (FP) induced by ischemia ([2]; 10 min OGD): significantly reduced the loss of FP
